{"source": "patent US5250544A", "about": "“New piperidine tetrahydropyridine and pyrrolidine compounds” (Adir et Compagnie, priority 1990, dated 1993)", "test": "Evaluation of the antihypertensive activity: arterial pressure and heart rate in anesthetized dogs, i.v.", "format": "in vivo", "conditions": "anesthetized mongrel dogs, versus flesinoxan racemic or isomer (+)", "experimental": "Mongrel dogs (males and females) were anesthetized with phenobarbital (30 mg/kg i.v.) and then placed under artificial respiration (Bird Mark VII respirator). The arterial pressure was measured using a catheter placed in the abdominal aorta via the femoral artery. This catheter is connected to a pressure cell (Statham® R23 D6) connected to a recorder.\nThe heart rate was measured using a Gould Biotach®.\nThe sympathetic nervous activity was recorded at the level of the renal nerve using a silver electrode. […] The compounds to be examined were administered intravenously."}
{"compound": "O=C(NCCN1CCN(c2cccc3c2OC[C@H](CO)O3)CC1)c1ccc(F)cc1", "note": "(single isomer, unassigned) [Flesinoxan (+) Isomer]", "values": [{"measurement": "activity compared with reference product flesinoxan (antihypertensive study, Table II)", "result": "most active isomer of flesinoxan"}]}
